Test results: patent US9630916B2, “Organocatalysts of oxidative protein folding” (Wisconsin Alumni Research Foundation, priority 2014, dated 2017)
Several values for one entry are separate records, joined by “and”; a condition that tells them apart may be missing. Equal values may be shown once. Read-outs that look alike come from different tables or passages of the source.

T1: sRNase A (Bos taurus, UniProt P61823)
T1 construct: purchased Sigma-Aldrich
T1 sequence (P61823 27-150): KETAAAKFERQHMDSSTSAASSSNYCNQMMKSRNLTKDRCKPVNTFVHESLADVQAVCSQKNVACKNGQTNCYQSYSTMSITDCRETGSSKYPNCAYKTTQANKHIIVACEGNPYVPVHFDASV


Tests used:
[1] = cited from earlier work
[2] = Determination of disulfide E°′ (equilibration with oxidized β-mercaptoethanol, analytical HPLC, Nernst equation); type: physicochemical; conditions: equilibrium with βME^ox, mean of three measurements
Description: (§1) Dithiol 2 was synthesized from diethylenetriamine in a few high-yielding steps (see: The Examples). Thiol pKa values were measured by monitored the thiols A238 am as a function of pH. […] These values are slightly less than those of BMC (Table 1), presumably due to the introduction of an additional electronegative nitrogen atom. To determine the reduction potential of the oxidized form of the dithiol, equimolar amounts of dithiol 2 and oxidized β-mercaptoethanol were equilibrated and the amount of each reduced and oxidized species was quantitated with analytical HPLC. […] Finally, to probe the effect of increasing hydrophobicity on catalyzing the formation of native disulfide bonds in proteins, dithiols 3-8 were synthesized.
The reduction potentials of BMC, 2, and 7 were determined as described previously. Briefly, an equilibrium was established between reduced BMC (or 2, 5, or 7) and βME^OX, and analyzed with analytical HPLC. The equilibrium concentrations were determined by integration of the peaks corresponding to βME and βME^ox. From these concentrations, the Keq for the reaction was determined and the reduction potential of BMC (or 2 or 7) was then calculated using the Nernst equation and EβME^OX^∘′=−0.260 V. The values reported are the mean (±SE) of three separate measurements for each compound

sRNase A = target: T1, sRNase A; experiment: Assay for disulfide-bond isomerization activity: unscrambling of sRNase A to give native RNase A; type: biochemical, bovine; conditions: for Folding yield (%): native RNase A from sRNase A, 1 mM catalyst, 30° C., 50 mM Tris-HCl pH 7.6, GSH 1.0 mM, GSSG 0.2 mM, after 5 h
Description: FIGS. 4A and 4B are graphs illustrating catalysis of disulfide-bond isomerization by PDI and PDI mimics 1-7. (4A) Is a graph of the time-course for the unscrambling of sRNase A to give native RNase A. All reactions were performed at 30° C. in 50 mM Tris-HCl buffer, pH 7.6, containing GSH (1.0 mM), GSSG (0.2 mM), and PDI or dithiol 1-7 (1.0 mM). (4B) Is a graph of yield of native RNase A achieved by PDI mimics 2-7 after 5 h as a function of the calculated log P values listed in Table 1.
Enzymatic catalysis provides an extremely sensitive measure of native protein structure. RNase A contains eight cysteine residues, which could form 105 (=7×5×3×1) distinct fully oxidized species, only one of which gives rises to enzymatic activity (FIG. 3). Accordingly, the ability of this panel of compounds to catalyze the isomerization of “scrambled” RNase A (sRNase A) was tested. “Scrambled” RNase A is a random mixture of oxidized species, compared to its native state. The isomerization reaction was monitored by measuring the gain of catalytic activity.
sRNase was prepared as described previously, and validated by its having low ribonucleolytic activity and few free thiols according to Ellman's assay. Bovine liver PDI was from Sigma-Aldrich (product #P3818). The activation of sRNase A in the presence of refolding catalysts was determined as described previously. Refolding reactions were performed at 30° C. in 50 mM Tris-HCl buffer, pH 7.6, containing GSH (1.0 mM), GSSG (0.2 mM), and catalyst (1.0 mM). Organocatalysts were delivered from 100-fold concentrated stock solutions in DMSO. Reactions were initiated by the addition of sRNase A to a final concentration of 5 μg/mL. Reaction progress was monitored by quantifying the cleavage of the substrate 6-FAM-dArUdAdA-6-TAMRA at 493/515 nm, as described previously. Assays were performed in triplicate at ambient temperature in a black polystyrene 96-well plate, in 200 μL of 0.10 M MES-NaOH buffer, pH 6.0, containing NaCl (0.10 M). The resulting fluorescence data were fitted to the equation kcat/KM=(ΔI/Δt)/(If−I0)[E], in which ΔI/Δt is the initial reaction velocity, I0 is the fluorescence intensity before addition of any ribonuclease, If is the fluorescence intensity after complete substrate hydrolysis, and [E] is the total ribonuclease concentration. Reaction progress was monitored every hour until the increase in activity leveled off (˜5 h). In FIG. 4A, data were fitted to eq 2. [active RNase A]=[sRNase A]t=0(1−e^[catalyst]tk^obs) (2)

[3] = Determination of thiol pKa values (A238 vs pH); type: physicochemical; conditions: potassium phosphate buffers of varied pH, absorbance at 238 nm, 0.10 M potassium phosphate buffers
Description: as §1
The thiol pKa values for 2 and 7 were determined by closely following a procedure reported previously that exploits the elevated absorbance of the deprotonated thiolate at 238 nm. […] [9, 55]
In eq 1, CT is the total thiol concentration, εSH^SH is the extinction coefficient of the doubly protonated form of 2 or 7, εSH^S− is the extinction coefficient of the singly protonated form of 2 or 7, and εS−^S− is the extinction coefficient of the doubly deprotonated form of 2 or 7.

[4] = PDI active-site disulfide; literature value [21, 22]; cited from earlier work
[5] = higher of two thiol pKa values, read-out: thiol pKa (second value)
[6] = lower of two thiol pKa values, read-out: thiol pKa (first value)

Molecule	Disulfide E°′ [2] [V]	Folding yield (%) (sRNase A)	pKa [3, 5]	pKa [3, 6]	other results
O=C(CS)N[C@@H]1CCCC[C@H]1NC(=O)CS (racemic) [Dithiol 1, (±)-trans-1,2-bis(mercaptoacetamido)cyclohexane, reference compound]	−0.232	42 ± 2	–	–	thiol pKa (first value) ([1]; values from ref. [30]): 8.3; thiol pKa (second value) ([1]; values from ref. [30]): 9.9
O=C(CS)NCCNCCNC(=O)CS [Dithiol 2]	–	50 ± 2	9.2 ± 0.1	8 ± 0.2	Disulfide E°′ ([2]; listed as 2): −0.192 V; Disulfide E°′ ([2]; listed as dithiol 2): −0.192±0.003 V
CC(=O)N(CCNC(=O)CS)CCNC(=O)CS [Dithiol 3]	–	45 ± 2	–	–	–
CCCC(=O)N(CCNC(=O)CS)CCNC(=O)CS [Dithiol 4]	–	54 ± 4	–	–	–
CCCCCC(=O)N(CCNC(=O)CS)CCNC(=O)CS [Dithiol 5]	−0.203	57 ± 1	9.3 ± 0.3	8.1 ± 0.3	–
O=C(CS)NCCN(CCNC(=O)CS)C(=O)c1ccccc1 [Dithiol 6]	–	60 ± 2	–	–	–
CCc1ccc(C(=O)N(CCNC(=O)CS)CCNC(=O)CS)cc1 [Dithiol 7]	−0.206	66 ± 2	9.4 ± 0.2	8.1 ± 0.2	increase of the yield of folded RNase A versus the uncatalyzed reaction (sRNase A; relative to uncatalyzed reaction (45 ± 2 %)): 47%
PDI: enzyme protein disulfide isomerase (EC 5.3.4.1); bovine liver PDI from Sigma-Aldrich used in the assay (protein, UniProt P05307 21-510, looked up) Protein disulfide-isomerase: APDEEDHVLVLHKGNFDEALAAHKYLLVEFYAPWCGHCKALAPEYAKAAGKLKAEGSEIRLAKVDATEESDLAQQYGVRGYPTIKFFKNGDTASPKEYTAGREADDIVNWLKKRTGPAASTLSDGAAAEALVESSEVAVIGFFKDMESDSAKQFFLAAEVIDDIPFGITSNSDVFSKYQLDKDGVVLFKKFDEGRNNFEGEVTKEKLLDFIKHNQLPLVIEFTEQTAPKIFGGEIKTHILLFLPKSVSDYEGKLSNFKKAAESFKGKILFIFIDSDHTDNQRILEFFGLKKEECPAVRLITLEEEMTKYKPESDELTAEKITEFCHRFLEGKIKPHLMSQELPDDWDKQPVKVLVGKNFEEVAFDEKKNVFVEFYAPWCGHCKQLAPIWDKLGETYKDHENIVIAKMDSTANEVEAVKVHSFPTLKFFPASADRTVIDYNGERTLDGFKKFLESGGQDGAGDDDDLEDLEEAEEPDLEEDDDQKAVKDEL	–	87 ± 2	–	–	pKa ([1]; N-terminal cysteine in the active site of PDI, literature value): 6.7; Disulfide E°′ [4]: −0.18 V and −0.180 V
